According to ChEMBL document CHEMBL1201862, “PubChem BioAssay data set” (2004):
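Tested at 5 concentrations; 48 h exposure; 96-well plates; endpoints linearly interpolated, else capped at highest concentration. Abbreviation: GI50, concentration required for 50% inhibition of growth.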 The source made the active and inactive calls. Cut-off read from the data, not from the text of the source: active = GI50 up to about 1.1 µM and inactive = higher.

Experiments:
Assay in all cases: NCI-60 cell line screen, 48 h
[1] = system: COLO 205
[2] = system: IGROV-1
[3] = system: SK-MEL-28
[4] = system: NCI-H460
[5] = system: CCRF-CEM
[6] = system: DU-145
[7] = system: Hs-578T
[8] = system: SK-MEL-2
[9] = system: SF-295
[10] = system: SK-MEL-5
[11] = system: OVCAR-3
[12] = system: HT-29
[13] = system: MOLT-4
[14] = system: PC-3
[15] = system: TK-10
[16] = system: 786-0
[17] = system: UACC-62
[18] = system: HCT-116

Measured: GI50

COc1c2cc(C(C)(C)C)cc1CSCc1cc(C(C)(C)C)cc(c1OC)CCCCC2
inactive: [1] > 50 µM | [2] 21.4 µM | [3] 26.5 µM | [4] 31.6 µM | [5] 33.1 µM | [6] 31.8 µM | [7] > 50 µM | [8] 25.1 µM | [9] 17 µM | [10] 24.1 µM | [11] 15.1 µM | [12] > 50 µM | [13] 29.6 µM | [14] 22.4 µM | [15] 31.9 µM | [16] > 50 µM | [17] 29.7 µM | [18] 27.4 µM

CC(C)c1cccc(C(C)C)c1NC(=O)/C(CC(=O)CC(c1ccccc1)c1c(O)c2ccccc2oc1=O)=N/O (stereo not drawn)
inactive: [1] > 100 µM | [2] > 100 µM | [3] > 100 µM | [4] > 100 µM | [5] > 100 µM | [6] > 100 µM | [7] > 100 µM | [8] > 100 µM | [9] > 100 µM | [10] > 100 µM | [11] > 100 µM | [12] > 100 µM | [13] > 100 µM | [14] > 100 µM | [15] > 100 µM | [16] > 100 µM | [17] > 100 µM | [18] > 100 µM

O=C(NCCNCCNCCNC(=O)c1cc(-c2ccccc2)nc2ccccc12)c1cc(-c2ccccc2)nc2ccccc12
inactive: [1] 1.99 µM | [2] 2.52 µM | [3] 1.7 µM | [4] 1.79 µM | [5] 2.28 µM | [6] 3.24 µM | [7] 2.25 µM | [8] 1.54 µM | [9] 1.67 µM | [10] 1.52 µM | [11] 2.64 µM | [12] 1.7 µM | [13] 1.95 µM | [14] 3.48 µM | [15] 3.01 µM | [16] 1.66 µM | [17] 2.05 µM | [18] 1.88 µM

CCN(CC)CCC1CCCCN1CC(=O)N1c2ccccc2NC(=O)CC1C (stereo not drawn)
inactive: [1] > 100 µM | [2] > 100 µM | [3] > 100 µM | [4] > 100 µM | [5] > 100 µM | [6] > 100 µM | [7] > 100 µM | [8] > 100 µM | [9] > 100 µM | [10] > 100 µM | [11] > 100 µM | [12] > 100 µM | [13] > 100 µM | [14] > 100 µM | [15] > 100 µM | [16] > 100 µM | [17] > 100 µM | [18] > 100 µM

CCOC(=O)CCCNC(=O)CCCCC(=O)N(C)C
inactive: [1] > 100 µM | [2] > 100 µM | [3] > 100 µM | [4] > 100 µM | [5] > 100 µM | [6] > 100 µM | [7] > 100 µM | [8] > 100 µM | [9] > 100 µM | [10] > 100 µM | [11] > 100 µM | [12] > 100 µM | [13] > 100 µM | [14] > 100 µM | [15] > 100 µM | [16] > 100 µM | [17] > 100 µM | [18] > 100 µM

Cc1ccc(S(=O)(=O)NC(=O)NNc2ccc(F)cc2)cc1
inactive: [1] > 100 µM | [2] > 100 µM | [3] > 100 µM | [4] > 100 µM | [5] > 100 µM | [6] > 100 µM | [7] > 100 µM | [8] > 100 µM | [9] > 100 µM | [10] > 100 µM | [11] > 100 µM | [12] > 100 µM | [13] > 100 µM | [14] > 100 µM | [15] > 100 µM | [16] > 100 µM | [17] > 100 µM | [18] > 100 µM
